Data: patent publication US20220211796A1, “PEPTIDE ANTIBIOTICS AND METHODS OF USE THEREOF” (priority 2019, published 2022)
In brackets after ≈: the same amount, converted by molar mass.

Key:
B. subtilis ATCC 6633 = assay: microbe, parasite or virus in culture
Method: (§1) The L-peptides identified from five different phage display libraries were catalogued as described previously and selected sequences were synthesized in D-enantiomeric form by SPPS for further investigation in several biological assays.
(§2) MICs were determined according to a 96-well microdilution protocol outlined by the Clinical and Laboratory Standard Institute (CLSI) guideline with modifications for peptide antibiotics reported by Wiegand et al.^35 Two-fold serial peptide dilutions were performed to go from 2560 μg/ml to 5 μg/ml in0.2% BSA and 0.01% acetic acid buffer in 96-well polypropylene plates (COSTAR, #3879). Dilution of bacterial suspensions (1:200) of different bacterial strains that were grown until 0.5 McFarland standard were prepared to obtain a final inoculum concentration of 8×10^5 CFU/ml in Mueller-Hinton broth.

E. coli ATCC 25992 = assay: microbe, parasite or virus in culture
Method: as §1, §2

E. faecalis ATCC 29121 = assay: microbe, parasite or virus in culture
Method: as §1, §2

[1] = system: Methicillin-resistant S. aureus (MRSA) ATCC 43300; assay: microbe, parasite or virus in culture
Method: as §1, §2

S. aureus ATCC 6538 = assay: microbe, parasite or virus in culture
Method: as §1, §2

[2] = system: high level vancomycin resistant E. faecium (vanA) ATCC 51559; assay: microbe, parasite or virus in culture
Method: as §1, §2

[3] = system: low level vancomycin resistant E. faecium (vanB) ATCC 51299; assay: microbe, parasite or virus in culture
Method: as §1, §2

[4] = system: human red blood cells (hRBC); assay: Hemolytic activity; type: cell-based; conditions: 0.25% hRBC, 37° C., 1 h
Method: Fresh red human blood cells (hRBC) were washed and centrifuged at 3000 rpm for 5 min at 4° C. with PBS until a clear solution was obtained. Two-fold serial dilutions of each peptide in PBS from 0.5 μg/ml to 256 μg/ml were incubated with 0.25% (v/v) hRBC suspension at 37° C. for 1 h, and then centrifuged for 5 min at 3500 rpm in 96-well plate. 50 μl of the supernatant from each well was diluted with 50 μl pure water, and the OD at 415 nm was measured using microplate reader. Melittin at the same concentrations (200 μg/ml for complete lysis) was used as a positive control. Percent hemolysis was calculated according to the equation: […]
where complete hemolysis was defined as the average hemolysis of all wells containing a final concentration of melittin ranging from 50 to 400 μg/ml. Experiments were performed as triplicates at different days.

HeLa cells = assay: Mammalian cytotoxicity (MTT) assay; conditions: 24 h, b121: concentrations up to 256 μg/ml
Method: Cervical cancer cells (HeLa) were cultured in Dulbecco's Modified Eagle's medium (DMEM) (Invitrogen #11995-073) supplemented with 10% bovine calf serum at 37° C., 5% CO2, and seeded (5×10^3 cells/well) in 96-well plate flat-bottomed plate for 24 h before the assay. […] After washing the cells with PBS, the cells were subjected to the standard yellow tetrazolium (3-(4,5-dimethylthiazol-2-yl)-2,5-diphenyltetrazolium bromide (MTT) assay protocol at final concentration of 0.5 mg/ml for 4 h in a humidified 5% CO2 atmosphere at 37° C. MTT solution was then aspirated, and the purple formazan crystals were resuspended in DMSO by incubation for 5 min at 37° C. The absorbance at 540 nm was then read using a microplate reader. Viability control (100% viability) was assigned to samples with only HeLa cells and DMEM media, 0% viability was assigned to samples with 1% added Triton-X-100 and no peptide. Experiments were performed as triplicates at different days.

[5] = read-out: Kd of vancomycin:D-Ala-D-Ala complex; cited from earlier work
[6] = relative to D-Ala-D-Ala precursor; cited from earlier work

CN[C@H](CC(C)C)C(=O)N[C@H]1C(=O)N[C@@H](CC(N)=O)C(=O)N[C@H]2C(=O)N[C@H]3C(=O)N[C@H](C(=O)N[C@H](C(=O)O)c4cc(O)cc(O)c4-c4cc3ccc4O)[C@H](O)c3ccc(c(Cl)c3)Oc3cc2cc(c3O[C@@H]2O[C@H](CO)[C@@H](O)[C@H](O)[C@H]2O[C@H]2C[C@](C)(N)[C@H](O)[C@H](C)O2)Oc2ccc(cc2Cl)[C@H]1O [P1, Vancomycin, reference compound]
MIC (B. subtilis ATCC 6633; Bacillus subtilis, ATCC6633, read-out: MIC B. subtilis): 0.5 mg/L (≈ 0.345 µM) | MIC B. subtilis (B. subtilis ATCC 6633; Table 6, B. subtilis ATCC6633): 0.5 mg/L (≈ 0.345 µM) | MIC (E. coli ATCC 25992; Escherichia coli, ATCC25992, read-out: MIC E. coli): > 256 mg/L | MIC E. coli (E. coli ATCC 25992; Table 6, E. Coli ATCC25992): >256 mg/L | MIC (E. faecalis ATCC 29121; Enterococcus faecalis, ATCC29121, read-out: MIC E. faecalis): 1 mg/L (≈ 0.69 µM) | MIC E. faecalis (E. faecalis ATCC 29121; Table 6, E. faecalis ATCC29121): 1 mg/L (≈ 0.69 µM) | MIC ([1]; Staphylococcus aureus, read-out: MIC MRSA): 0.5 mg/L (≈ 0.345 µM) | MIC MRSA ([1]; Table 6, MRSA ATCC43300): 0.5 mg/L (≈ 0.345 µM) | MIC (S. aureus ATCC 6538; Staphylococcus aureus, ATCC6538, read-out: MIC S. aureus): 0.5 mg/L (≈ 0.345 µM) | MIC S. aureus (S. aureus ATCC 6538; Table 6, S. aureus ATCC6538): 0.5 mg/L (≈ 0.345 µM) | activity against vanA / high-level vancomycin-resistant strain [2]: no activity | MIC ([2]; Enterococcus faecium, ATCC51559 / VRE, read-out: MIC VRE (vanA)): > 256 mg/L | MIC VRE (vanA) ([2]; Table 6, high level vancomycin resistant E. faecium ATCC51559): >256 mg/L | MIC ([3]; Enterococcus faecium, ATCC51299 / VRE, read-out: MIC VRE (vanB)): 32 mg/L (≈ 22.1 µM) | MIC VRE (vanB) ([3]; Table 6, low level vancomycin resistant E. faecium ATCC51299): 32 mg/L (≈ 22.1 µM) | percentage hemolysis of hRBCs [4]: 0% | cytotoxicity on HeLa cells (HeLa cells): non-toxic | Kd [5]: ~1 µM | reduction of binding affinity on D-alanine to D-lactate substitution [6]: ~1000 fold
